For 19 compounds, Ki results are on record in US8022099B2, “N-benzyl pyrrolidine derivatives” (Hoffmann-La Roche Inc., priority 2008, dated 2011).

Molecules are shown by their SMILES.

The test addresses T1, human NK3 receptor (Homo sapiens, UniProt P29371).
T1 construct: expressed in transfected cells; host or cells: HEK293 cells (transient expression), membrane preparation
T1 sequence (P29371 1-465): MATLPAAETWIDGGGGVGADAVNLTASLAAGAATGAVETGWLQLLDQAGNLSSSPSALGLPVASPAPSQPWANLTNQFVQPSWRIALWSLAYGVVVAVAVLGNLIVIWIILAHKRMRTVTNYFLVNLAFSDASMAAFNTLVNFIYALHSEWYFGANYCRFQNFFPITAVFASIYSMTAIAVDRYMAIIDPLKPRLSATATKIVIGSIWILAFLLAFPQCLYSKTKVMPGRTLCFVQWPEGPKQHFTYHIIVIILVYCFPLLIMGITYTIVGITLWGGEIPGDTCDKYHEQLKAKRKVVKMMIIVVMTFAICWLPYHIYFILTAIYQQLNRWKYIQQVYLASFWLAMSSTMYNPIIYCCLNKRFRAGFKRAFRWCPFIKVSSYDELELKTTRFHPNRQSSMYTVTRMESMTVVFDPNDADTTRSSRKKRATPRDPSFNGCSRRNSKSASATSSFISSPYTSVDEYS
Put plainly: [3H]SR142801 competition binding assay. Conditions: hNK3 receptor binding, [3H]SR142801, membranes from HEK293 cells transiently expressing recombinant human NK3 receptor. The protocol: [^3H]SR142801 Competition Binding Assay
hNK3 receptor binding experiment were performed using [^3H]SR142801 (Catalog No. TRK1035, specific activity: 74.0 Ci/mmol, Amersham, GE Healthcare UK limited, Buckinghamshire, UK) and membrane isolated from HEK293 cells transiently expressing recombinant human NK3 receptor. After thawing, the membrane homogenates were centrifuged at 48,000×g for 10 min at 4° C., the pellets were resuspended in the 50 mM Tris-HCl, 4 mM MnCl2, 1 μM phosphoramidon, 0.1% BSA binding buffer at pH 7.4 to a final assay concentration of 5 μg protein/well. For inhibition experiments, membranes were incubated with [^3H]SR142801 at a concentration equal to KD value of radioligand and 10 concentrations of the inhibitory compound (0.0003-10 μM) (in a total reaction volume of 500 μl) for 75 min at room temperature (RT). At the end of the incubation, membranes were filtered onto unitfilter (96-well white microplate with bonded GF/C filter preincubated 1 h in 0.3% PEI+0.3% BSA, Packard BioScience, Meriden, Conn.) with a Filtermate 196 harvester (Packard BioScience) and washed 4 times with ice-cold 50 mM Tris-HCl, pH 7.4 buffer. Nonspecific binding was measured in the presence of 10 μM SB222200 for both radioligands. The radioactivity on the filter was counted (5 min) on a Packard Top-count microplate scintillation counter with quenching correction after addition of 45 μl of microscint 40 (Canberra Packard S. A., Zürich, Switzerland) and shaking for 1 h. Inhibition curves were fitted according to the Hill equation: y=100/(1+(x/IC50)^nH), where nH=slope factor using Excel-fit 4 software (Microsoft). IC50 values were derived from the inhibition curve and the affinity constant (Ki) values were calculated using the Cheng-Prussoff equation Ki=IC50/(1+[L]/KD) where [L] is the concentration of radioligand and KD is its dissociation constant at the receptor, derived from the saturation isotherm. All experiments were performed in duplicate and the mean±standard error (SEM) of the individual Ki values was calculated.
One may read the Ki as a dissociation constant, usually derived from enzyme kinetics or from competition with a known ligand. On to `CN(C)[C@@H]1CCN(C(=O)N2C[C@H](c3ccc(Cl)c(Cl)c3)[C@@H](N(C)Cc3ccc(C(F)(F)F)c(F)c3)C2)C1` (mixture of isomers) [Example 57, {(3SR,4RS)-3-(3,4-Dichloro-phenyl)-4-[(3-fluoro-4-trifluoromethyl-benzyl)-methyl-amino]-pyrrolidin-1-yl}-((R)-3-dimethylamino-pyrrolidin-1-yl)-methanone], for which the Ki was 74.8 nM. Take `C[C@H]1CN(C(=O)N2C[C@H](c3ccc(Cl)c(Cl)c3)[C@@H](N(C)Cc3ccc(C(F)(F)F)c(F)c3)C2)CCN1S(C)(=O)=O` (mixture of isomers) [Example 59, {(3SR,4RS)-3-(3,4-Dichloro-phenyl)-4-[(3-fluoro-4-trifluoromethyl-benzyl)-methyl-amino]-pyrrolidin-1-yl}-((S)-4-methanesulfonyl-3-methyl-piperazin-1-yl)-methanone]: the Ki came to 15.4 nM.

Turning to `C[C@@H]1CN(C(=O)N2C[C@H](c3ccc(Cl)c(Cl)c3)[C@@H](N(C)Cc3ccc(C(F)(F)F)c(F)c3)C2)CCN1S(C)(=O)=O` (mixture of isomers) [Example 60, {(3SR,4RS)-3-(3,4-Dichloro-phenyl)-4-[(3-fluoro-4-trifluoromethyl-benzyl)-methyl-amino]-pyrrolidin-1-yl}-((R)-4-methanesulfonyl-3-methyl-piperazin-1-yl)-methanone], the Ki came out at 3.6 nM.

With `CC(=O)N[C@H]1CCN(CC(=O)N2C[C@H](c3ccc(Cl)c(Cl)c3)[C@@H](N(C)Cc3ccc(C(F)(F)F)c(F)c3)C2)C1` (mixture of isomers) [Example 133, N-[(S)-1-(2-{(3SR,4RS)-3-(3,4-Dichloro-phenyl)-4-[(3-fluoro-4-trifluoromethyl-benzyl)-methyl-amino]-pyrrolidin-1-yl}-2-oxo-ethyl)-pyrrolidin-3-yl]-acetamide], the Ki came out at 23.2 nM.

On to `CC(=O)N[C@@H]1CCN(CC(=O)N2C[C@H](c3ccc(Cl)c(Cl)c3)[C@@H](N(C)Cc3ccc(C(F)(F)F)c(F)c3)C2)C1` (mixture of isomers) [Example 134, N-[(R)-1-(2-{(3SR,4RS)-3-(3,4-Dichloro-phenyl)-4-[(3-fluoro-4-trifluoromethyl-benzyl)-methyl-amino]-pyrrolidin-1-yl}-2-oxo-ethyl)-pyrrolidin-3-yl]-acetamide], for which the inhibitory constant (Ki) came out at 43.2 nM. The same measure for `C[C@H]1CN(CC(=O)N2C[C@H](c3ccc(Cl)c(Cl)c3)[C@@H](N(C)Cc3ccc(C(F)(F)F)c(F)c3)C2)CCN1` (mixture of isomers) [Example 140, 1-{(3SR,4RS)-3-(3,4-Dichloro-phenyl)-4-[(3-fluoro-4-trifluoromethyl-benzyl)-methyl-amino]-pyrrolidin-1-yl}-2-((S)-3-methyl-piperazin-1-yl)-ethanone]: 47.9 nM; for `C[C@@H]1CN(CC(=O)N2C[C@H](c3ccc(Cl)c(Cl)c3)[C@@H](N(C)Cc3ccc(C(F)(F)F)c(F)c3)C2)CCN1` (mixture of isomers) [Example 141, 1-{(3SR,4RS)-3-(3,4-Dichloro-phenyl)-4-[(3-fluoro-4-trifluoromethyl-benzyl)-methyl-amino]-pyrrolidin-1-yl}-2-((R)-3-methyl-piperazin-1-yl)-ethanone]: 59.7 nM.

`CN(Cc1ccc(C(F)(F)F)c(F)c1)[C@H]1CN(C(=O)CN2C[C@@H]3C[C@@H]2CO3)C[C@@H]1c1ccc(Cl)c(Cl)c1` (mixture of isomers) [Example 148, 1-{(3SR,4RS)-3-(3,4-Dichloro-phenyl)-4-[(3-fluoro-4-trifluoromethyl-benzyl)-methyl-amino]-pyrrolidin-1-yl}-2-(1S,4R)-2-oxa-5-aza-bicyclo[2.2.1]hept-5-yl-ethanone]: the Ki is 25.1 nM. As for `CN(Cc1ccc(C(F)(F)F)c(F)c1)[C@H]1CN(C(=O)N2CCN(S(C)(=O)=O)CC2)C[C@@H]1c1ccccc1` (racemic) [Example 17, {(3RS,4SR)-3-[(3-Fluoro-4-trifluoromethyl-benzyl)-methyl-amino]-4-phenyl-pyrrolidin-1-yl}-(4-methanesulfonyl-piperazin-1-yl)-methanone], the figure is 90.9 nM; as for `CN(Cc1ccc(Cl)c(Cl)c1)[C@H]1CN(C(=O)N2CCN(S(C)(=O)=O)CC2)C[C@@H]1c1ccc(Cl)cc1` (racemic) [Example 19, {(3SR,4RS)-3-(4-Chloro-phenyl)-4-[(3,4-dichloro-benzyl)-methyl-amino]-pyrrolidin-1-yl}-(4-methanesulfonyl-piperazin-1-yl)-methanone], 80.7 nM. `CN(Cc1ccc(Cl)cc1)[C@H]1CN(C(=O)N2CCN(S(C)(=O)=O)CC2)C[C@@H]1c1ccc(Cl)cc1` (racemic) [Example 23, [(3RS,4SR)-3-[(4-Chloro-benzyl)-methyl-amino]-4-(4-chloro-phenyl)-pyrrolidin-1-yl]-(4-methanesulfonyl-piperazin-1-yl)-methanone]: the Ki came out at 91 nM. As for `CN(Cc1ccc(C#N)cc1)[C@H]1CN(C(=O)N2CCN(S(C)(=O)=O)CC2)C[C@@H]1c1ccc(Cl)cc1` (racemic) [Example 26, 4-({[(3RS,4SR)-4-(4-Chloro-phenyl)-1-(4-methanesulfonyl-piperazine-1-carbonyl)-pyrrolidin-3-yl]-methyl-amino}-methyl)-benzonitrile], the figure is 82.5 nM; as for `CN(Cc1ccc(-c2ccccc2)cc1)[C@H]1CN(C(=O)N2CCN(S(C)(=O)=O)CC2)C[C@@H]1c1ccc(Cl)cc1` (racemic) [Example 27, [(3RS,4SR)-3-(Biphenyl-4-ylmethyl-methyl-amino)-4-(4-chloro-phenyl)-pyrrolidin-1-yl]-(4-methanesulfonyl-piperazin-1-yl)-methanone], 78 nM; as for `CN(Cc1ccc(Cl)c(F)c1)[C@H]1CN(C(=O)N2CCN(S(C)(=O)=O)CC2)C[C@@H]1c1ccc(Cl)cc1` (racemic) [Example 29, [(3RS,4SR)-3-[(4-Chloro-3-fluoro-benzyl)-methyl-amino]-4-(4-chloro-phenyl)-pyrrolidin-1-yl]-(4-methanesulfonyl-piperazin-1-yl)-methanone], 69.9 nM. Take `CN(Cc1ccc(C(F)(F)F)c(F)c1)[C@H]1CN(C(=O)N2CCN(S(C)(=O)=O)CC2)C[C@@H]1c1ccc(Cl)cc1` (racemic) [Example 30, {(3SR,4RS)-3-(4-Chloro-phenyl)-4-[(3-fluoro-4-trifluoromethyl-benzyl)-methyl-amino]-pyrrolidin-1-yl}-(4-methanesulfonyl-piperazin-1-yl)-methanone]: the Ki came to 28.4 nM. The same measure for `CN(Cc1ccc(C(F)(F)F)c(F)c1)[C@H]1CN(C(=O)N2CCN(S(C)(=O)=O)CC2)C[C@@H]1c1ccc(Cl)c(Cl)c1` (racemic) [Example 31, {(3SR,4RS)-3-(3,4-Dichloro-phenyl)-4-[(3-fluoro-4-trifluoromethyl-benzyl)-methyl-amino]-pyrrolidin-1-yl}-(4-methanesulfonyl-piperazin-1-yl)-methanone]: 8.3 nM; for `CN(Cc1ccc(Cl)c(Cl)c1)[C@H]1CN(C(=O)N2CCN(S(C)(=O)=O)CC2)C[C@@H]1c1ccc(Cl)c(Cl)c1` (racemic) [Example 32]: 33.3 nM; for `CN(Cc1ccc(Cl)cc1)[C@H]1CN(C(=O)N2CCN(S(C)(=O)=O)CC2)C[C@@H]1c1ccc(Cl)c(Cl)c1` (racemic) [Example 33, [(3RS,4SR)-3-[(4-Chloro-benzyl)-methyl-amino]-4-(3,4-dichloro-phenyl)-pyrrolidin-1-yl]-(4-methanesulfonyl-piperazin-1-yl)-methanone]: 33.6 nM. As for `CN(Cc1ccc(C#N)cc1)[C@H]1CN(C(=O)N2CCN(S(C)(=O)=O)CC2)C[C@@H]1c1ccc(Cl)c(Cl)c1` (racemic) [Example 34, 4-({[(3RS,4SR)-4-(3,4-Dichloro-phenyl)-1-(4-methanesulfonyl-piperazine-1-carbonyl)-pyrrolidin-3-yl]-methyl-amino}-methyl)-benzonitrile], the figure is 32.2 nM.
